# Data as given in US5416073A, “Growth hormone-releasing peptides and method of treating animals, therewith” (The Adminstrators of the Tulane Educational Fund, priority 1985, dated 1995).
# Tests used:
# Growth Hormone Release = experiment: Peptide effects on growth hormone release, plasma GH by RIA in anesthetized male rats; type: in vivo, rat; settings: for % Potency: by comparison to pooled standards GRF(1-29)-NH2, limits in parenthesis
# Protocol: In this evaluation, the procedures described by W. A. Murphy et al., Endocrinology 109:491-495 (1980), were employed.
# In growth hormone (GH) experiments, male rats (Charles Rivers) were anesthetized with NEMBUTAL® (6 mg per 100 g body weight) which also served to maintain stimulated plasma GH levels. Exactly 30 minutes after the rats were anesthetized, 0.5 mL of saline or the test peptide in saline was administered as a SC bolus. A 1 mL blood sample was drawn from the jugular vein 15 minutes after the injection of the peptide in saline. GH levels were determined using NIADDKD rat GH RIA components.
# dairy cows = experiment: Effect on milk production in dairy cows, treatments administered subcutaneously; type: in vivo; settings: for Milk Production: 10-day treatment period, mean, saline control 22.2; for % increase over control: milk production, vs saline control
# Protocol: In this test, treatments are administered using a Latin Square design using four cows. Each treatment period is 10 days, and the interval between treatments is 4 days.
# There is a pre-treatment period of one week, at the end of which each cow receives an indwelling jugular catheter. Catheters are flushed daily with heparinized (500-1000 IU/ml) sterile saline to help maintain potency and are replaced as needed.
# The drugs are solubilized in sterile saline and injected subcutaneously each day with the dosage based on the cow's weight. Dosages range from 0.06 mg/kg animal/day to 60 mg/kg animal/day, preferably 0.10 mg/kg animal/day to 50 mg/kg/day.
# On the first and last treatment days of each period, blood is collected at 15 minute intervals for 1 hour prior to and 11/2 hours after treatment; sampling continues at 30 minutes intervals for an additional 31/2 hours.
# Milk samples are obtained on the evening proceeding each bleeding day, the morning of each bleeding day and combined (50% each).
# Feed intake, refusals and milk production is monitored for all animals.
# Results obtained are reported as mean milk production in kg/day for each treatment and compared against a saline control.
compound,measurement,setting,value
"CC[C@H](C)[C@H](NC(=O)[C@H](C)NC(=O)[C@H](CC(=O)O)NC(=O)[C@@H](C)NC(=O)[C@@H](N)Cc1ccc(O)cc1)C(=O)N[C@@H](Cc1ccccc1)C(=O)N[C@H](C(=O)N[C@@H](CC(N)=O)C(=O)N[C@@H](CO)C(=O)N[C@@H](Cc1ccc(O)cc1)C(=O)N[C@@H](CCCNC(=N)N)C(=O)N[C@@H](CCCCN)C(=O)N[C@H](C(=O)N[C@@H](CC(C)C)C(=O)NCC(=O)N[C@@H](CCC(N)=O)C(=O)N[C@@H](CC(C)C)C(=O)N[C@@H](CO)C(=O)N[C@@H](C)C(=O)N[C@@H](CCCNC(=N)N)C(=O)N[C@@H](CCCCN)C(=O)N[C@@H](CC(C)C)C(=O)N[C@@H](CC(C)C)C(=O)N[C@@H](CCC(N)=O)C(=O)N[C@@H](CC(=O)O)C(=O)N[C@H](C(=O)N[C@@H](CCSC)C(=O)N[C@@H](CO)C(=O)N[C@@H](CCCNC(=N)N)C(N)=O)[C@@H](C)CC)C(C)C)[C@@H](C)O [[D-Ala^2]-hpGRF(1-29)-NH2, D-alanine^2-human Pancreatic Growth Hormone-Releasing(1-29)-amide]",Plasma GH,"Growth Hormone Release; dose 0.08 μg/100 g BW SC, 15 min, saline 454 ± 62",1118 ± 158 ng/mL
same,Plasma GH,"Growth Hormone Release; dose 0.20 μg/100 g BW SC, 15 min, saline 454 ± 62",2122 ± 350 ng/mL
same,Plasma GH,"Growth Hormone Release; dose 0.50 μg/100 g BW SC, 15 min, saline 454 ± 62",3539 ± 109 ng/mL
same,Milk Production,dairy cows; 0.4 mg/kg/day SC,23.9 kg/day
same,Milk Production,dairy cows; 0.8 mg/kg/day SC,23.8 kg/day
same,% increase over control,dairy cows; 0.4 mg/kg/day SC,+7.6%
same,% increase over control,dairy cows; 0.8 mg/kg/day SC,+7.2%
"CC[C@H](C)[C@H](NC(=O)[C@H](C)NC(=O)[C@H](CC(=O)O)NC(=O)[C@@H](C)NC(=O)[C@@H](Cc1ccc(O)cc1)NC(C)=O)C(=O)N[C@@H](Cc1ccccc1)C(=O)N[C@H](C(=O)N[C@@H](CC(N)=O)C(=O)N[C@@H](CO)C(=O)N[C@@H](Cc1ccc(O)cc1)C(=O)N[C@@H](CCCNC(=N)N)C(=O)N[C@@H](CCCCN)C(=O)N[C@H](C(=O)N[C@@H](CC(C)C)C(=O)NCC(=O)N[C@@H](CCC(N)=O)C(=O)N[C@@H](CC(C)C)C(=O)N[C@@H](CO)C(=O)N[C@@H](C)C(=O)N[C@@H](CCCNC(=N)N)C(=O)N[C@@H](CCCCN)C(=O)N[C@@H](CC(C)C)C(=O)N[C@@H](CC(C)C)C(=O)N[C@@H](CCC(N)=O)C(=O)N[C@@H](CC(=O)O)C(=O)N[C@H](C(=O)N[C@@H](CCSC)C(=O)N[C@@H](CO)C(=O)N[C@@H](CCCNC(=N)N)C(N)=O)[C@@H](C)CC)C(C)C)[C@@H](C)O [[N-Ac-D-Tyr^1, D-Ala^2]-hpGRF(1-29)-NH2, N-acetyl-D-tyrosine^1,D-alanine^2-human pancreatic growth hormone-releasing (1-29)-amine]",Plasma GH,"Growth Hormone Release; dose 0.2 μ/100 g BW SC, 15 min, saline 333 ± 50",680 ± 100 ng/mL
same,Plasma GH,"Growth Hormone Release; dose 0.5 μ/100 g BW SC, blood 15 min after injection, saline 333 ± 50",499 ± 50 ng/mL
same,Plasma GH,"Growth Hormone Release; dose 0.8 μ/100 g BW SC, 15 min, saline 333 ± 50",2063 ± 251 ng/mL
same,Plasma GH,"Growth Hormone Release; dose 3.2 μ/100 g BW SC, 15 min, saline 333 ± 50",3818 ± 412 ng/mL
"Ac-YADAIFTNSYRRVLGQLSARRLLQDIMSR-NH2 [[N-Ac-Tyr, Arg^12, 21]-hpGRF(1-29)-NH2, N-acetyl Arginine^12,21-human Pancreatic Growth Hormone-Releasing Factor (1-29)-amide]",Plasma GH,"Growth Hormone Release; dose 1 μ/100 g BW SC, 15 min, saline 27% ± 54",796 ± 88 ng/mL
same,Plasma GH,"Growth Hormone Release; dose 2.5 μ/100 g BW SC, 15 min, saline 27% ± 54",1649 ± 167 ng/mL
D-asparagine^8 -human Pancreatic Growth Hormone-Releasing(1-29)-amide [D-Asn^8],Plasma GH,"Growth Hormone Release; dose 4 ug/100 g BW SC, 15 min, saline 366 ± 81",1296 ± 118 ng/mL
same,Plasma GH,"Growth Hormone Release; dose 10 ug/100 g BW SC, 15 min, saline 366 ± 81",2397 ± 246 ng/mL
D-serine-9-human Pancreatic Growth Hormone-Releasing(1-29)-amine [D-Ser^9],% Potency,Growth Hormone Release,108 (77-151) %
same,Plasma GH,"Growth Hormone Release; dose 16 (unit not given), SC, 15 min",1804 ± 312
same,Plasma GH,"Growth Hormone Release; dose 40 (unit not given), SC, 15 min",3652 ± 370
"N-acetyl-L-histidine-1,D-alamine-2,L-norleucine-27-human Pancreatic Growth Hormone-Releasing (1-29)-amine [N-AcHis^1, D-Ala^2, Nle^27]",% Potency,Growth Hormone Release,1574 (1112-2226) %
same,Plasma GH,"Growth Hormone Release; dose 0.5 (unit not given), SC, 15 min",1146 ± 143
same,Plasma GH,"Growth Hormone Release; dose 1.25 (unit not given), SC, 15 min",1907 ± 603
"N-acetyl-L-histidine-1,D-alanine^2 -human Pancreatic Growth Hormone-Releasing(1-29)-amine [[N-Ac-His^1, D-Ala^2]-hpGRF(1-29)-NH2]",Plasma GH,"Growth Hormone Release; dose 1.0 μg/100 g BW SC, 15 min, saline 541 ± 78",1974 ± 274 ng/mL
same,Plasma GH,"Growth Hormone Release; dose 5.0 μg/100 g BW SC, 15 min, saline 541 ± 78",4989 ± 638 ng/mL
